Measurements reported in publication PMC3242765, “Inhibitors of Alphavirus Entry and Replication Identified with a Stable Chikungunya Replicon Cell Line and Virus-Based Assays” (PLoS ONE, 2011).
Where “and” joins values, the source holds several entries; their conditions need not be identical. Equal values may be shown once. Where a name gives a salt, the structure may show the parent alone.

Assays:
CHIKV replicon = experiment: microbe, parasite or virus in culture; assay type: cell-based, Chikungunya virus (CHIKV)

| SMILES | CHIKV replicon % left (CHIKV replicon) | SFV replication % left (surviving fraction, remaining percentage of SFV replication) (SFV-Rluc) |
| --- | --- | --- |
| NC[C@@H]1O[C@H](O[C@H]2[C@@H](O)[C@H](O[C@@H]3[C@@H](O)[C@H](N)C[C@H](N)[C@H]3O[C@H]3O[C@H](CN)[C@@H](O)[C@H](O)[C@H]3N)O[C@@H]2CO)[C@H](N)[C@@H](O)[C@@H]1O.O=S(=O)(O)O [Neomycin sulfate] | 100.4% | 99.6% |
| NC(=O)c1cccnc1 [Nicotinamide] | 99.1% | 116.9% |
| O=C1CN=C(c2ccccc2)c2cc([N+](=O)[O-])ccc2N1 [Nitrazepam] | 98.8% | 46.0% |
| O=C1CN(/N=C/c2ccc([N+](=O)[O-])o2)C(=O)N1 [Nitrofurantoin] | 60.9% | 58.9% |
| NC(=O)N/N=C/c1ccc([N+](=O)[O-])o1 [Nitrofurazone] | 102.1% | 83.7% |
| CC(N)C(O)c1ccc(O)c(O)c1 (stereo not drawn) [Nordefrin hydrochloride] | 104.2% | 118.0% |
| CC(Cc1ccc(O)c(O)c1)C(C)Cc1ccc(O)c(O)c1 (stereo not drawn) [Nordihydroguaiaretic acid] | 28.3% | 35.6% |
| C#C[C@]1(O)CC[C@H]2[C@@H]3CCC4=CC(=O)CC[C@@H]4[C@H]3CC[C@@]21C [Norethindrone] | 97.1% | 107.8% |
| NCC(O)c1cccc(O)c1 (stereo not drawn) [Norfenefrine] | 96.6% | 126.3% |
| CNCCC=C1c2ccccc2CCc2ccccc21 [Nortriptyline hydrochloride] | 29.1% | 5.3% |
| COc1ccc2c(c1OC)C(=O)O[C@@H]2[C@H]1c2c(cc3c(c2OC)OCO3)CCN1C [Noscapine] | 78.4% | 103.5% |
| NCC(O)c1ccc(O)cc1 (stereo not drawn) [Octopamine hydrochloride] | 88.4% | 102.1% |
| CCCCCCCCOC(=O)c1cc(O)c(O)c(O)c1 [Octyl gallate] | 94.1% | 134.4% |
| C[C@@H]1O[C@@H](O[C@H]2C[C@@H](O)[C@]3(CO)[C@H]4[C@H](O)C[C@]5(C)[C@@H](C6=CC(=O)OC6)CC[C@]5(O)[C@@H]4CC[C@]3(O)C2)[C@H](O)[C@H](O)[C@H]1O [Ouabain] | 89.2% | 90.9% |
| O=C1Nc2ccc(Cl)cc2C(c2ccccc2)=NC1O (stereo not drawn) [Oxazepam] | 80.3% | 79.1% |
| C=CCOc1ccccc1OCC(O)CNC(C)C (stereo not drawn) [Oxprenolol hydrochloride] | 84.3% | 92.4% |
| CCCCC1C(=O)N(c2ccccc2)N(c2ccc(O)cc2)C1=O (stereo not drawn) [Oxyphenbutazone] | 100.4% | 84.8% |
| COc1ccc(Cc2nccc3cc(OC)c(OC)cc23)cc1OC [Papaverine] | 78.2% | 99.3% |
| CC(C)(C)NC[C@H](O)COc1ccccc1C1CCCC1 [Penbutolol] | 39.4% | 45.0% |
| CCCC(C)C1(CC)C(=O)NC(=O)NC1=O (stereo not drawn) [Pentobarbital] | 104.3% | 70.5% |
| CCOc1ccc(NC(C)=O)cc1 [Phenacetin] | 100.8% and 94.3% | 71.8% and 80.6% |
| CCC1(c2ccccc2)C(=O)NC(=O)NC1=O [Phenobarbital sodium] | 70.8% | 88.1% |
| CCC1(c2ccccc2)C(=O)NC(=O)NC1=O [Phenobarbital] | 43.2% | 58.6% |
| O=C(Oc1ccccc1)c1ccccc1O [Phenyl salicylate] | 94.3% | 118.2% |
| CCCCC1C(=O)N(c2ccccc2)N(c2ccccc2)C1=O [Phenylbutazone] | 100.5% | 96.7% |
| CNC(C)Cc1ccc(O)cc1.CNC(C)Cc1ccc(O)cc1.O=S(=O)(O)O (stereo not drawn) [Pholedrine sulfate] | 81.5% | 92.8% |
| O=C(O)c1ccccc1C(=O)O [Phthalic acid] | 96.6% | 143.7% |
